Laboratory results reported in PMC9721025, “Pharmacokinetic study of the main components of Tanreqing capsules and Tanreqing injections in beagles by liquid chromatography–tandem mass spectrometry” (Chinese Medicine, 2022).

Assays:
[1] = Pharmacokinetics in beagles, multiple-dose regimen (once per day for 7 days) of TRQI or TRQC, plasma LC-MS/MS; format: in vivo; settings: beagle, dog; for Cmax at 7 days / Tmax at 7 days / half-life at 7 days: mean
Procedure: (§1) 100 μL plasma sample was drawn and transferred to 1.5 mL centrifuge tube prior to 300 μL protein precipitant (3:1 [v/v] methanol/acetonitrile, containing 0.1% formic acid and 100 ng/mL IS) was added, and then the sample was vortex-mixed for 3 min. The mixture was centrifuged at 20,000 ×g for 10 min, and 100 μL supernatant was transferred to the injection vial and analyzed directly by LC–MS/MS.
(§2) This study was carried out in six beagles (three males and three females, 9.0–12.0 kg each), that were purchased from Junda Pet Hospital (Shanghai, China). This experimental protocol was approved by the Experimental Animal Ethics Committee of the Naval Military Medical University (Shanghai, China).
After the end of the single-dose experiment, the dogs in group one were given 0.5 mL/kg injection of TRQI once per day for 7 days following the wash out period, and the dogs in group two were given 0.09 g/kg TRQC once per day for 7 days. After the seventh administration, blood samples were collected at 0, 10, 20, and 40 min and then at 1, 1.5, 2, 2.5, 3, 4, 6, 8, 12, and 24 h (a total of 14 time points) and were processed as described in “Single-dose regimen” section. The resulting plasma samples were used to determine the steady-state plasma concentration of TRQI and TRQC. A crossover study was again carried out in both groups, as described in “Single-dose regimen” section, after a 7-day washing period.
(§3) All data obtained were analyzed using Drug and Statistics (DAS) 2.0 software (Chinese Society of Pharmacology), and a non-compartment analysis was used to calculate plasma pharmacokinetic parameters. The principal components of TRQI and TRQC were compared with an analysis of variance (ANOVA) and/or a two-tailed student-t test.

[2] = Pharmacokinetics in beagles, single-dose regimen of TRQI (i.v.) or TRQC (oral), plasma LC-MS/MS; format: in vivo, beagle; settings: beagle, dog, plasma; for AUC(0-t): read-out: AUC0–24 h; for Cmax / Tmax / half-life: mean of six beagles
Procedure: as §1, §2
The six healthy beagles were divided into two groups: beagles 1–3 were all male and were assigned to the first group, and beagles 4–6 were all females and assigned to the second group. The two-cycle, crossover study was designed with a 7-day wash out period. For the single-administration process, the dogs in the first group were injected intravenously with 0.5 mL/kg TRQI (one-third of the normal daily dose), and blood samples were collected at 0, 5, 10, 15, 20, 30, and 45 min and then at 1, 2, 4, 6, 8, 12, and 24 h (a total of 14 time points) after injection. For each blood sample, 1 mL of blood was collected from the forelimb vein in heparin-treated tubes. The dogs in the second group were orally administrated 0.09 g/kg TRQC (one-third of the normal daily dose, and blood samples were collected in the same manner at 0, 10, 20, and 40 min and then at 1, 1.5, 2, 2.5, 3, 4, 6, 8, 12, and 24 h (a total of 14 time points). All blood samples were centrifuged at 4000 × g for 5 min, and each supernatant was collected and aliquoted. After a 7-day wash out period, the dogs in each group were administrated the other Tanreqing formulation in a crossover design, and blood samples were collected and processed in the same way.
as §3

[3] = Stability of analytes in dog plasma (QC samples); format: in vitro ADME
Procedure: The stock solutions of all analytes were further mixed and diluted with methanol/water (10:90, v/v) solution to prepare the working solutions. […] The QC samples were stored in a refrigerator at – 80 °C until retrieval (see Additional file 1). The stability, which includes short-term stability (6 h at room temperature), long-term stability (− 80 °C for 30 days in the refrigerator), and freeze–thaw stability (three cycles from − 80 °C to room temperature), were assessed using QC samples at three concentration levels in three replicates. […] Similarly, there were no obvious effects on the analysis results of the samples with respect to short-term stability or long-term storage.

[4] = both sexes, iv, TRQI 0.5 mL/kg once per day for 7 days
[5] = both sexes, po, TRQC 0.09 g/kg once per day for 7 days
[6] = both sexes, iv, single i.v. dose of TRQI 0.5 mL/kg
[7] = both sexes, single oral dose of TRQC 0.09 g/kg
[8] = n = 3, high QC: nominal 200 ng/mL baicalin, 1000 ursodeoxycholic acid, 100 chenodeoxycholic acid and chlorogenic acid
[9] = n = 3, low QC: nominal 4 ng/mL baicalin, 20 ursodeoxycholic acid, 2 chenodeoxycholic acid and chlorogenic acid
[10] = n = 3, middle QC: nominal 20 ng/mL baicalin, 100 ursodeoxycholic acid, 10 chenodeoxycholic acid and chlorogenic acid

- AUC(0-inf) ([1]; both sexes, iv, 0.5 mL/kg, TRQI 0.5 mL/kg for 7 days, Mean): 0.0159 µg·h/mL
- AUC(0-t) ([1]; both sexes, iv, 0.5 mL/kg, TRQI 0.5 mL/kg for 7 days, Mean, read-out: AUC0–24 h): 0.0154 µg·h/mL
- Cmax at 7 days [1, 4]: 0.0203 µg/mL
- Tmax at 7 days [1, 4]: 0.18 h
- half-life at 7 days [1, 4]: 0.88 h
- AUC(0-inf) ([1]; both sexes, po, 0.09 g/kg, TRQC 0.09 g/kg for 7 days, Mean): 0.0123 µg·h/mL
- AUC(0-t) ([1]; both sexes, po, 0.09 g/kg, TRQC 0.09 g/kg for 7 days, Mean, read-out: AUC0–24 h): 0.0117 µg·h/mL
- Cmax at 7 days [1, 5]: 0.0039 µg/mL
- Tmax at 7 days [1, 5]: 3.17 h
- half-life at 7 days [1, 5]: 1.56 h
- AUC(0-inf) ([1]; female, iv, 0.5 mL/kg, TRQI 0.5 mL/kg for 7 days, beagle No. 4): 0.0193 µg·h/mL
- AUC(0-t) ([1]; female, iv, 0.5 mL/kg, TRQI 0.5 mL/kg for 7 days, beagle No. 4, read-out: AUC0–24 h): 0.0191 µg·h/mL
- AUC(0-inf) ([1]; female, iv, 0.5 mL/kg, TRQI 0.5 mL/kg for 7 days, beagle No. 5): 0.0244 µg·h/mL
- AUC(0-t) ([1]; female, iv, 0.5 mL/kg, TRQI 0.5 mL/kg for 7 days, beagle No. 5, read-out: AUC0–24 h): 0.0239 µg·h/mL
- AUC(0-inf) ([1]; female, iv, 0.5 mL/kg, TRQI 0.5 mL/kg for 7 days, beagle No. 6): 0.0307 µg·h/mL
- AUC(0-t) ([1]; female, iv, 0.5 mL/kg, TRQI 0.5 mL/kg for 7 days, beagle No. 6, read-out: AUC0–24 h): 0.03 µg·h/mL
- AUC(0-inf) ([1]; female, po, 0.09 g/kg, TRQC 0.09 g/kg for 7 days, beagle No. 4): 0.0232 µg·h/mL
- AUC(0-t) ([1]; female, po, 0.09 g/kg, TRQC 0.09 g/kg for 7 days, beagle No. 4, read-out: AUC0–24 h): 0.0226 µg·h/mL
- AUC(0-inf) ([1]; female, po, 0.09 g/kg, TRQC 0.09 g/kg for 7 days, beagle No. 5): 0.0133 µg·h/mL
- AUC(0-t) ([1]; female, po, 0.09 g/kg, TRQC 0.09 g/kg for 7 days, beagle No. 5, read-out: AUC0–24 h): 0.0114 µg·h/mL
- AUC(0-inf) ([1]; female, po, 0.09 g/kg, TRQC 0.09 g/kg for 7 days, beagle No. 6): 0.027 µg·h/mL
- AUC(0-t) ([1]; female, po, 0.09 g/kg, TRQC 0.09 g/kg for 7 days, beagle No. 6, read-out: AUC0–24 h): 0.0269 µg·h/mL
- AUC(0-inf) ([1]; male, iv, 0.5 mL/kg, TRQI 0.5 mL/kg for 7 days, beagle No. 1): 0.00607 µg·h/mL
- AUC(0-t) ([1]; male, iv, 0.5 mL/kg, TRQI 0.5 mL/kg for 7 days, beagle No. 1, read-out: AUC0–24 h): 0.00607 µg·h/mL
- AUC(0-inf) ([1]; male, iv, 0.5 mL/kg, TRQI 0.5 mL/kg for 7 days, beagle No. 2): 0.00559 µg·h/mL
- AUC(0-t) ([1]; male, iv, 0.5 mL/kg, TRQI 0.5 mL/kg for 7 days, beagle No. 2, read-out: AUC0–24 h): 0.00524 µg·h/mL
- AUC(0-inf) ([1]; male, iv, 0.5 mL/kg, TRQI 0.5 mL/kg for 7 days, beagle No. 3): 0.0092 µg·h/mL
- AUC(0-t) ([1]; male, iv, 0.5 mL/kg, TRQI 0.5 mL/kg for 7 days, beagle No. 3, read-out: AUC0–24 h): 0.00821 µg·h/mL
- AUC(0-inf) ([1]; male, po, 0.09 g/kg, TRQC 0.09 g/kg for 7 days, beagle No. 1): 0.00131 µg·h/mL
- AUC(0-t) ([1]; male, po, 0.09 g/kg, TRQC 0.09 g/kg for 7 days, beagle No. 1, read-out: AUC0–24 h): 0.00072 µg·h/mL
- AUC(0-inf) ([1]; male, po, 0.09 g/kg, TRQC 0.09 g/kg for 7 days, beagle No. 2): 0.0032 µg·h/mL
- AUC(0-t) ([1]; male, po, 0.09 g/kg, TRQC 0.09 g/kg for 7 days, beagle No. 2, read-out: AUC0–24 h): 0.00319 µg·h/mL
- AUC(0-inf) ([1]; male, po, 0.09 g/kg, TRQC 0.09 g/kg for 7 days, beagle No. 3): 0.00562 µg·h/mL
- AUC(0-t) ([1]; male, po, 0.09 g/kg, TRQC 0.09 g/kg for 7 days, beagle No. 3, read-out: AUC0–24 h): 0.00521 µg·h/mL
- AUC(0-t) ([2]; both sexes, iv, 0.5 mL/kg, single TRQI 0.5 mL/kg, Mean): 0.0203 µg·h/mL
- Cmax [2, 6]: 0.0266 µg/mL
- Tmax [2, 6]: 0.13 h
- half-life [2, 6]: 0.89 h
- AUC(0-t) ([2]; both sexes, po, 0.09 g/kg, single TRQCs 0.09 g/kg, Mean): 0.0291 µg·h/mL
- Cmax [2, 7]: 0.00858 µg/mL
- Tmax [2, 7]: 3.75 h
- half-life [2, 7]: 1.45 h
- AUC(0-t) ([2]; female, iv, 0.5 mL/kg, single TRQI 0.5 mL/kg, beagle No 4): 0.0112 µg·h/mL
- AUC(0-t) ([2]; female, iv, 0.5 mL/kg, single TRQI 0.5 mL/kg, beagle No 5): 0.0152 µg·h/mL
- AUC(0-t) ([2]; female, iv, 0.5 mL/kg, single TRQI 0.5 mL/kg, beagle No 6): 0.0248 µg·h/mL
- AUC(0-t) ([2]; female, po, 0.09 g/kg, single TRQCs 0.09 g/kg, beagle No 4): 0.0139 µg·h/mL
- AUC(0-t) ([2]; male, iv, 0.5 mL/kg, single TRQI 0.5 mL/kg, beagle No 1): 0.0296 µg·h/mL
- AUC(0-t) ([2]; male, iv, 0.5 mL/kg, single TRQI 0.5 mL/kg, beagle No 2): 0.0178 µg·h/mL
- AUC(0-t) ([2]; male, po, 0.09 g/kg, single TRQCs 0.09 g/kg, beagle No 1): 0.0211 µg·h/mL
- AUC(0-t) ([2]; male, po, 0.09 g/kg, single TRQCs 0.09 g/kg, beagle No 2): 0.0481 µg·h/mL
- AUC(0-t) ([2]; male, po, 0.09 g/kg, single TRQCs 0.09 g/kg, beagle No 3): 0.0332 µg·h/mL
- Freeze-thaw stability (3 cycles) Mean ± S.D. concentration [3, 8]: 95.65 ± 3.72 ng/mL
- Long-term stability (30 days at – 80 °C) Mean ± S.D. concentration [3, 8]: 87.31 ± 4.62 ng/mL
- Short-term stability (6 h at room temperature) Mean ± S.D concentration [3, 8]: 88.28 ± 2.72 ng/mL
- Freeze-thaw stability (3 cycles) Mean ± S.D. concentration [3, 9]: 2.07 ± 0.17 ng/mL
- Long-term stability (30 days at – 80 °C) Mean ± S.D. concentration [3, 9]: 1.73 ± 0.05 ng/mL
- Short-term stability (6 h at room temperature) Mean ± S.D concentration [3, 9]: 1.98 ± 0.16 ng/mL
- Freeze-thaw stability (3 cycles) Mean ± S.D. concentration [3, 10]: 10.03 ± 0.84 ng/mL
- Long-term stability (30 days at – 80 °C) Mean ± S.D. concentration [3, 10]: 8.95 ± 0.42 ng/mL
- Short-term stability (6 h at room temperature) Mean ± S.D concentration [3, 10]: 8.97 ± 0.70 ng/mL
SMILES: O=C(/C=C/c1ccc(O)c(O)c1)O[C@@H]1C[C@](O)(C(=O)O)C[C@@H](O)[C@H]1O [Chlorogenic acid, chlorogenic acid]
